Results taken from patent publication US20230219931A1, “FUSED HETEROARYL HYDROXAMATES AS STING AGONISTS” (BiSiChem Co., Ltd., priority 2022, published 2023).
Where a name gives a salt, the structure may show the parent alone. One block for each molecule: values may come before it.

System: ISG reporter activity in THP1-Dual cell
Experiment: ISG reporter assay
Type: cell-based
Conditions: Homo sapiens, compounds incubated with cells for 24 hours, QUANTI-Blue, absorbance at 655 nm
Experimental: [Worded in the source for another cell line; this cell line is reported under the same test.] THP1-Blue cells (cat. no. thp-isg) were purchased from InvivoGen (Sandiago, USA). Penicillin—streptomycin (cat. no. L0022-100), Fetal Bovine Serum (FBS) (cat. no. S1480-500) and Roswell Park Memorial Institute (RPMI) 1640 media (cat. L0498-500) were purchased from biowest (Nuaille, France). Zeocin (cat. no. ant-zn-OS) and Normocin (cat. no. ant-nr-1) were purchased from InvivoGen (Sandiago, USA). QUANTI-Blue™ (cat. no. rep-qbs) was purchased from InvivoGen. THP1-Blue cells were cultured in RPMI 1640 medium with 10% heat-inactivated FBS, 100 μg/ml Normocin, 100 μg/ml Zeocin and 100 U/ml-100 μg/ml penicillin-streptomycin. The cells were incubated at 37° C. in a humidified atmosphere of 5% CO2.
THP1-Blue cells were seeded at 5×10^4 cells/well (90 μl/well). 10 μl of compounds were added to the cells and incubated for 24 hours. 20 μl of cell culture supernatant was dispensed new 96-well plate (cat. no. 30096) with 180 μl of QUANTI-Blue™ solution and incubated for 15 minutes at 37° C. The absorbance was measured by Varioskan Lux (Thermofisher Scientific, USA) at 655 nm.

EC50: < 50 nM
SMILES: CCn1nc(C)cc1C(=O)Nc1nc2cc(C(N)=O)cc(OC)c2n1C/C=C/Cn1c(NC(=O)c2cc(C)nn2CC)nc2cc(C(N)=O)cc(OCC#CCC3CCN(S(=O)(=O)C4CC4)CC3)c21 [Example 48, (E)-1-(4-(5-carbamoyl-2-(1-ethyl-3-methyl-1H-pyrazole-5-carboxamido)-7-methoxy-1H-benzo[d]imidazol-1-yl)but-2-en-1-yl)-7-((4-(1-(cyclopropylsulfonyl)piperidin-4-yl)but-2-yn-1-yl)oxy)-2-(1-ethyl-3-methyl-1H-pyrazole-5-carboxamido)-1H-benzo[d]imidazole-5-carboxamide]

EC50: < 50 nM
SMILES: CCn1nc(C)cc1C(=O)Nc1nc2cc(C(N)=O)cc(OC)c2n1C/C=C/Cn1c(NC(=O)c2cc(C)nn2CC)nc2cc(C(N)=O)cc(OCC#CC3CCN(S(=O)(=O)N4CCOCC4)CC3)c21 [Example 27, (E)-1-(4-(5-carbamoyl-2-(1-ethyl-3-methyl-1H-pyrazole-5-carboxamido)-7-((3-(1-(morpholinosulfonyl)piperidin-4-yl)prop-2-yn-1-yl)oxy)-1H-benzo[d]imidazol-1-yl)but-2-en-1-yl)-2-(1-ethyl-3-methyl-1H-pyrazole-5-carboxamido)-7-methoxy-1H-benzo[d]imidazole-5-carboxamide]

EC50: < 50 nM
SMILES: CCn1nc(C)cc1C(=O)Nc1nc2cc(C(N)=O)cc(OC)c2n1C/C=C/Cn1c(NC(=O)c2cc(C)nn2CC)nc2cc(C(N)=O)cc(OCC#CC3CCN(C(=O)OCCN(C)C)CC3)c21 [Example 34, 2-(dimethylamino)ethyl (E)-4-(3-((5-carbamoyl-1-(4-(5-carbamoyl-2-(1-ethyl-3-methyl-1H-pyrazole-5-carboxamido)-7-methoxy-1H-benzo[d]imidazol-1-yl)but-2-en-1-yl)-2-(1-ethyl-3-methyl-1H-pyrazole-5-carboxamido)-1H-benzo[d]imidazol-7-yl)oxy)prop-1-yn-1-yl)piperidine-1-carboxylate]

EC50: 50 to 500 nM
SMILES: CCn1nc(C)cc1C(=O)Nc1nc2cc(C(N)=O)cc(OC)c2n1C/C=C/Cn1c(NC(=O)c2cc(C)nn2CC)nc2cc(C(N)=O)cc(OCC#CC3CCNCC3)c21 [Example 4, (E)-1-(4-(5-carbamoyl-2-(1-ethyl-3-methyl-1H-pyrazole-5-carboxamido)-7-((3-(piperidin-4-yl)prop-2-yn-1-yl)oxy)-1H-benzo[d]imidazol-1-yl)but-2-en-1-yl)-2-(1-ethyl-3-methyl-1H-pyrazole-5-carboxamido)-7-methoxy-1H-benzo[d]imidazole-5-carboxamide hydrochloride]

EC50: < 50 nM
SMILES: CCn1nc(C)cc1C(=O)Nc1nc2cc(C(N)=O)cc(OC)c2n1C/C=C/Cn1c(NC(=O)c2cc(C)nn2CC)nc2cc(C(N)=O)cc(OCC#CCC3CCN(C(=O)OC(C)(C)C)C3)c21 (centres unmarked) [Example 51, tert-butyl (E)-3-(4-((5-carbamoyl-1-(4-(5-carbamoyl-2-(1-ethyl-3-methyl-1H-pyrazole-5-carboxamido)-7-methoxy-1H-benzo[d]imidazol-1-yl)but-2-en-1-yl)-2-(1-ethyl-3-methyl-1H-pyrazole-5-carboxamido)-1H-benzo[d]imidazol-7-yl)oxy)but-2-yn-1-yl)pyrrolidine-1-carboxylate]

EC50: > 500 nM
SMILES: CCn1nc(C)cc1C(=O)Nc1nc2cc(C(=O)NOC)cc(OC)c2n1C/C=C/Cn1c(NC(=O)c2cc(C)nn2CC)nc2cc(C(N)=O)cc(OCC#CC(C)(C)O)c21 [Example 33, (E)-1-(4-(5-carbamoyl-2-(1-ethyl-3-methyl-1H-pyrazole-5-carboxamido)-7-((4-hydroxy-4-methylpent-2-yn-1-yl)oxy)-1H-benzo[d]imidazol-1-yl)but-2-en-1-yl)-2-(1-ethyl-3-methyl-1H-pyrazole-5-carboxamido)-N,7-dimethoxy-1H-benzo[d]imidazole-5-carboxamide]

The next lines start with the molecule.

SMILES: CCn1nc(C)cc1C(=O)Nc1nc2cc(C(N)=O)cc(OC)c2n1C/C=C/Cn1c(NC(=O)c2cc(C)nn2CC)nc2cc(C(N)=O)cc(OCC#CC3CCN(S(C)(=O)=O)CC3)c21 [Example 19, (E)-1-(4-(5-carbamoyl-2-(1-ethyl-3-methyl-1H-pyrazole-5-carboxamido)-7-((3-(1-(methylsulfonyl)piperidin-4-yl)prop-2-yn-1-yl)oxy)-1H-benzo[d]imidazol-1-yl)but-2-en-1-yl)-2-(1-ethyl-3-methyl-1H-pyrazole-5-carboxamido)-7-methoxy-1H-benzo[d]imidazole-5-carboxamide]
EC50: < 50 nM

SMILES: CCn1nc(C)cc1C(=O)Nc1nc2cc(C(N)=O)cc(OC)c2n1C/C=C/Cn1c(NC(=O)c2cc(C)nn2CC)nc2cc(C(N)=O)cc(OCC#CC3CCCN(C(=O)OC(C)(C)C)C3)c21 (centres unmarked) [Example 32, tert-butyl (E)-3-(3-((5-carbamoyl-1-(4-(5-carbamoyl-2-(1-ethyl-3-methyl-1H-pyrazole-5-carboxamido)-7-methoxy-1H-benzo[d]imidazol-1-yl)but-2-en-1-yl)-2-(1-ethyl-3-methyl-1H-pyrazole-5-carboxamido)-1H-benzo[d]imidazol-7-yl)oxy)prop-1-yn-1-yl)piperidine-1-carboxylate]
EC50: < 50 nM

SMILES: CCn1nc(C)cc1C(=O)Nc1nc2cc(C(N)=O)cc(OC)c2n1C/C=C/Cn1c(NC(=O)c2cc(C)nn2CC)nc2cc(C(N)=O)cc(OCC#CC3CCN(C(=O)OC(C)(C)C)C3)c21 (centres unmarked) [Example 31, tert-butyl (E)-3-(3-((5-carbamoyl-1-(4-(5-carbamoyl-2-(1-ethyl-3-methyl-1H-pyrazole-5-carboxamido)-7-methoxy-1H-benzo[d]imidazol-1-yl)but-2-en-1-yl)-2-(1-ethyl-3-methyl-1H-pyrazole-5-carboxamido)-1H-benzo[d]imidazol-7-yl)oxy)prop-1-yn-1-yl)pyrrolidine-1-carboxylate]
EC50: < 50 nM

SMILES: CCn1nc(C)cc1C(=O)Nc1nc2cc(C(N)=O)cc(OC)c2n1C/C=C/Cn1c(NC(=O)c2cc(C)nn2CC)nc2cc(C(N)=O)cc(OCC#CC3CCN(C(=O)OCCO)CC3)c21 [Example 10, 2-hydroxyethyl (E)-4-(3-((5-carbamoyl-1-(4-(5-carbamoyl-2-(1-ethyl-3-methyl-1H-pyrazole-5-carboxamido)-7-methoxy-1H-benzo[d]imidazol-1-yl)but-2-en-1-yl)-2-(1-ethyl-3-methyl-1H-pyrazole-5-carboxamido)-1H-benzo[d]imidazol-7-yl)oxy)prop-1-yn-1-yl)piperidine-1-carboxylate]
EC50: < 50 nM

SMILES: CCn1nc(C)cc1C(=O)Nc1nc2cc(C(N)=O)cc(OC)c2n1C/C=C/Cn1c(NC(=O)c2cc(C)nn2CC)nc2cc(C(N)=O)cc(OCC#CC3CCN(C(=O)OC(C)C)CC3)c21 [Example 5, isopropyl (E)-4-(3-((5-carbamoyl-1-(4-(5-carbamoyl-2-(1-ethyl-3-methyl-1H-pyrazole-5-carboxamido)-7-methoxy-1H-benzo[d]imidazol-1-yl)but-2-en-1-yl)-2-(1-ethyl-3-methyl-1H-pyrazole-5-carboxamido)-1H-benzo[d]imidazol-7-yl)oxy)prop-1-yn-1-yl)piperidine-1-carboxylate]
EC50: < 50 nM

SMILES: CCn1nc(C)cc1C(=O)Nc1nc2cc(C(N)=O)cc(OC)c2n1C/C=C/Cn1c(NC(=O)c2cc(C)nn2CC)nc2cc(C(N)=O)cc(OCC#CCC3CCN(C(=O)C4CCN(C(=O)OC(C)(C)C)CC4)CC3)c21 [Example 46, tert-butyl (E)-4-(4-(4-((5-carbamoyl-1-(4-(5-carbamoyl-2-(1-ethyl-3-methyl-1H-pyrazole-5-carboxamido)-7-methoxy-1H-benzo[d]imidazol-1-yl)but-2-en-1-yl)-2-(1-ethyl-3-methyl-1H-pyrazole-5-carboxamido)-1H-benzo[d]imidazol-7-yl)oxy)but-2-yn-1-yl)piperidine-1-carbonyl)piperidine-1-carboxylate]
EC50: < 50 nM

SMILES: CCn1nc(C)cc1C(=O)Nc1nc2cc(C(N)=O)cc(OC)c2n1C/C=C/Cn1c(NC(=O)c2cc(C)nn2CC)nc2cc(C(N)=O)cc(OCC#CCC3CCN(C(=O)OC(C)(C)C)CC3)c21 [Example 42, tert-butyl (E)-4-(4-((5-carbamoyl-1-(4-(5-carbamoyl-2-(1-ethyl-3-methyl-1H-pyrazole-5-carboxamido)-7-methoxy-1H-benzo[d]imidazol-1-yl)but-2-en-1-yl)-2-(1-ethyl-3-methyl-1H-pyrazole-5-carboxamido)-1H-benzo[d]imidazol-7-yl)oxy)but-2-yn-1-yl)piperidine-1-carboxylate]
EC50: < 50 nM

SMILES: CCn1nc(C)cc1C(=O)Nc1nc2cc(C(N)=O)cc(OC)c2n1C/C=C/Cn1c(NC(=O)c2cc(C)nn2CC)nc2cc(C(N)=O)cc(OCC#CC3CCN(C(=O)OC4CCN(C(=O)OC(C)(C)C)CC4)CC3)c21 [Example 8, 1-(tert-butoxycarbonyl)piperidin-4-yl (E)-4-(3-((5-carbamoyl-1-(4-(5-carbamoyl-2-(1-ethyl-3-methyl-1H-pyrazole-5-carboxamido)-7-methoxy-1H-benzo[d]imidazol-1-yl)but-2-en-1-yl)-2-(1-ethyl-3-methyl-1H-pyrazole-5-carboxamido)-1H-benzo[d]imidazol-7-yl)oxy)prop-1-yn-1-yl)piperidine-1-carboxylate]
EC50: < 50 nM
